Results on 17 compounds are retold here after patent publication US20100056568A1, “Cycloalkylamine substituted isoquinolone and isoquinolinone derivatives” (sanofi-aventis, priority 2006, published 2010).

Structures can show the parent of a compound that is named as a salt.

One may read the IC50 as the concentration that inhibits the measured activity by half.

In the assay the target is T1, human recombinant ROCK II (Homo sapiens, UniProt O75116).
T1 construct: recombinant human ROCK-II residues 11-552; His6 (N); purchased Upstate Ltd., Dundee, UK
T1 sequence (O75116 11-552): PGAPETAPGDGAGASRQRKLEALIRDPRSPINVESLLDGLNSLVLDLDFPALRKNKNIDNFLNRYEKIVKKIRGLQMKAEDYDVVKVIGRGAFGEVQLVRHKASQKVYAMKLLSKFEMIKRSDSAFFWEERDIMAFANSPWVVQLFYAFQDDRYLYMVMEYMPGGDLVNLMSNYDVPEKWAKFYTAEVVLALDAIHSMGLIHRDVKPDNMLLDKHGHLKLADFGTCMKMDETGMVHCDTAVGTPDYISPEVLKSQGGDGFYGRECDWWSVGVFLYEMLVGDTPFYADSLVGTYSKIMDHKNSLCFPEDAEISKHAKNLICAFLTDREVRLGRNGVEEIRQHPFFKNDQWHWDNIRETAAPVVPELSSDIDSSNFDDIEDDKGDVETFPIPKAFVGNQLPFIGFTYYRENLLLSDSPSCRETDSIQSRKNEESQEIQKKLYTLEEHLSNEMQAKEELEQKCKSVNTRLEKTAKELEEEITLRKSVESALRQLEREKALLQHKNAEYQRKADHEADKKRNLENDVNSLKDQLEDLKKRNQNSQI
The experiment in a line: Determination of Rho kinase inhibition (Caliper peptide phosphorylation assay). It counts as biochemical. The following applies: negative decadal logarithm of the IC50; ROCK II residues 11-552, fluorescein peptide substrate, 60 min at 32° C.; tested as salt or free base obtained in the examples. How it is done:
To measure Rho-kinase inhibition, IC50 values were determined according to the following protocol:
Active human recombinant ROCK II (N-terminal His6-tagged recombinant human ROCK-II residues 11-552) was purchased from Upstate Ltd., Dundee, UK. The peptide substrate, Fluorescein-AKRRRLSSLRA-COOH, was obtained from JPT Peptide Technologies, Berlin, Germany. Adenosine-5′-triphosphate (ATP), bovine serum albumine (BSA), dimethylsulphoxide (DMSO), 4-(2-Hydroxyethyl)piperazine-1-ethanesulfonic acid (Hepes), Brij-35 and dithiothreitol (DTT) were purchased from Sigma-Aldrich, Munich, Germany. Tris(hydroxymethyl)-aminomethane (Tris), magnesium chloride, NaOH, 1M HCl and EDTA were obtained from Merck Biosciences, Darmstadt, Germany. “Complete” protease inhibitor was from Roche Diagnostics, Mannheim, Germany.
Test compounds were diluted to the appropriate concentrations in buffer 1 (25 mM Tris-HCl, pH 7.4, 5 mM MgCl2, 2 mM DTT, 0.02% (w/v) BSA and 3% DMSO). The ROCK II enzyme was diluted to a concentration of 100 ng/ml in buffer 2 (25 mM Tris-HCl, pH 7.4, 5 mM MgCl2, 2 mM DTT and 0.02% (w/v) BSA). The peptide substrate and ATP were diluted to concentrations of 3 μM and 120 μM, respectively, in the buffer 2. Two μl of the compound solution were mixed with 2 μl of the diluted enzyme in a 384-well small volume microtiter plate (Greiner, Bio-One, Frickenhausen, Germany), and the kinase reaction was initiated by addition of 2 μl of the solution containing peptide substrate and ATP. After 60 min incubation at 32° C., the reaction was stopped by addition of 20 μl of a solution containing 100 mM Hepes-NaOH, pH 7.4, 0.015% (v/v) Brij-35, 45 mM EDTA and 0.227% chip coating reagent 1 (Caliper Lifescience Inc, Hopkinton, Mass.). Phosphorylation of the substrate peptide was then detected on a Caliper 3000 instrument essentially as described by Pommereau et al (J. Biomol. Screening 9(5), 409-416, 2004). Separation conditions were as follows: Pressure −1.3 psi, upstream voltage −1562 V, downstream voltage −500 V, sample sip time 200 ms. Positive controls (buffer 1 instead of compound) and negative controls (buffer 1 instead of compound and buffer 2 instead of ROCK II) were run in parallel on each plate.
The following products/compounds were tested in said assay by using the respective form (salt or free base) obtained as in the examples described above and the following activities were measured.
Take `N[C@H]1CCCC[C@H]1Nc1ccc2c(=O)[nH]ccc2c1` (relative stereo) [Compound 40, 6-cis-(2-Amino-cyclohexyl-amino)-2H-isoquinolin-1-one]: the IC50 was not above 1000 nM.

In the case of `N[C@H]1CC[C@H](Nc2ccc3c(=O)[nH]ccc3c2)CC1` [Compound 36, 6-trans-(4-Amino-cyclohexyl-amino)-2H-isoquinolin-1-one], the IC50 is not above 1000 nM. For `NC1CCCC(Nc2ccc3c(=O)[nH]ccc3c2)C1` (centres unmarked) [Compound 41, 6-(3-Amino-cyclohexylamino)-2H-isoquinolin-1-one], the IC50 was not above 1000 nM. The result for `CCN(CC)[C@H]1CC[C@@H](Nc2ccc3c(=O)[nH]ccc3c2)CC1` [Compound 44, 6-cis-(4-Diethyl-amino-cyclohexyl-amino)-2H-iso-quinolin-1-one] reads 1000 to 10000 nM.

On to `CCN[C@H]1CC[C@@H](Nc2ccc3c(=O)[nH]ccc3c2)CC1` [Compound 45, 6-cis-(4-ethylamino-cyclohexylamino)-2H-isoquinolin-1-one], for which the IC50 was not above 1000 nM.

Take `CCCN(CCC)[C@H]1CC[C@@H](Nc2ccc3c(=O)[nH]ccc3c2)CC1` [Compound 46, 6-cis-(4-Dipropyl-amino-cyclohexyl-amino)-2H-iso-quinolin-1-one]: the IC50 is 1000 to 10000 nM. Consider `CCCN[C@H]1CC[C@@H](Nc2ccc3c(=O)[nH]ccc3c2)CC1` [Compound 47, 6-cis-(4-Propyl-amino-cyclohexyl-amino)-2H-iso-quinolin-1-one], for which the IC50 is not above 1000 nM. Take `O=c1[nH]ccc2cc(N[C@H]3CC[C@@H](NCc4ccccc4)CC3)ccc12` [Compound 48, 6-cis-(4-Benzyl-amino-cyclohexyl-amino)-2H-iso-quinolin-1-one]: the IC50 was 1000 to 10000 nM. Turning to `CC(C)N[C@H]1CC[C@@H](Nc2ccc3c(=O)[nH]ccc3c2)CC1` [Compound 49, 6-cis-(4-Isopropyl-amino-cyclohexyl-amino)-2H-iso-quinolin-1-one], the IC50 is 1000 to 10000 nM.

Turning to `O=c1[nH]ccc2cc(N[C@H]3CC[C@@H](NCc4cccc(Cl)c4)CC3)ccc12` [Compound 50, 6-cis-[4-(3-Chloro-benzylamino)-cyclohexyl-amino]-2H-isoquinolin-1-one], the IC50 is 1000 to 10000 nM. Consider `O=c1[nH]ccc2cc(N[C@H]3CC[C@@H](NCc4ccc(Cl)cc4)CC3)ccc12` [Compound 51, 6-cis-[4-(4-Chloro-benzylamino)-cyclohexyl-amino]-2H-isoquinolin-1-one], for which the IC50 is 1000 to 10000 nM.

As for `O=c1[nH]ccc2cc(N[C@H]3CC[C@@H](NCC4CCNCC4)CC3)ccc12` [Compound 52, 6-cis-{4-[(Piperidin-4-ylmethyl)-amino]-cyclohexyl-amino}-2H-isoquinolin-1-one], the IC50 was not above 1000 nM. Turning to `O=c1[nH]ccc2cc(N[C@H]3CC[C@@H](NC4CC4)CC3)ccc12` [Compound 53, 6-cis-(4-Cyclopropyl-amino-cyclo-hexylamino)-2H-isoquinolin-1-one], the IC50 is not above 1000 nM. Consider `O=c1[nH]ccc2cc(N[C@H]3CC[C@@H](N(C4CC4)C4CC4)CC3)ccc12` [Compound 54, 6-cis-(4-Dicyclo-propyl-amino-cyclohexyl-amino)-2H-isoquinolin-1-one], for which the IC50 was not above 1000 nM. For `N[C@H]1CC[C@@H](Sc2cc3ccncc3cc2Cl)CC1` [Compound 61, cis-4-(7-Chloro-isoquinolin-6-ylsulfanyl)-cyclohexylamine], the IC50 is not above 1000 nM. For `N[C@H]1CC[C@@H](Sc2cc3ccncc3cc2Br)CC1` [Compound 62, cis-4-(7-Bromo-isoquinolin-6-ylsulfanyl)-cyclohexylamine hydrochloride], the IC50 is not above 1000 nM. For `N[C@H]1CC[C@@H](Sc2cc3cc[nH]c(=O)c3cc2Cl)CC1` [Compound 64, 6-cis-(4-Amino-cyclohexylsulfanyl)-7-chloro-2H-isoquinolin-1-one], the IC50 was not above 1000 nM.
